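Step 1: Grow cells in 96-well plates. Step 2: Expose to compound for 48 hours at 5 concentrations. Step 3: Interpolate endpoints linearly; if unreached, use highest concentration. At the TGI there is no net growth.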
Experiments:
Assay in all cases: NCI anticancer screen, dose series, 48 h
OVCAR-5 ovarian = tested on: OVCAR-5 ovarian
U251 CNS = tested on: U251 CNS
A498 renal = tested on: A498 renal
HCT-15 colon = tested on: HCT-15 colon
XF 498 CNS = tested on: XF 498 CNS
LXFL 529 NSCLC = tested on: LXFL 529 NSCLC
SF-268 CNS = tested on: SF-268 CNS
NCI-H522 lung = tested on: NCI-H522 lung
UACC-62 melanoma = tested on: UACC-62 melanoma
DLD-1 colon = tested on: DLD-1 colon
KM12 colon = tested on: KM12 colon
HL-60(TB) leukemia = tested on: HL-60(TB) leukemia
SNB-78 CNS = tested on: SNB-78 CNS
CCRF-CEM leukemia = tested on: CCRF-CEM leukemia
OVCAR-4 ovarian = tested on: OVCAR-4 ovarian
SNB-19 CNS = tested on: SNB-19 CNS
SNB-75 CNS = tested on: SNB-75 CNS
COLO 205 colon = tested on: COLO 205 colon
SN12C renal = tested on: SN12C renal
UACC-257 melanoma = tested on: UACC-257 melanoma
HCT-116 colon = tested on: HCT-116 colon
SK-MEL-2 melanoma = tested on: SK-MEL-2 melanoma
UO-31 renal = tested on: UO-31 renal
RXF 393 renal = tested on: RXF 393 renal
DMS 273 small cell lung = tested on: DMS 273 small cell lung
MALME-3M melanoma = tested on: MALME-3M melanoma
M19-MEL melanoma = tested on: M19-MEL melanoma
SW-620 colon = tested on: SW-620 colon
MOLT-4 leukemia = tested on: MOLT-4 leukemia
RPMI-8226 leukemia = tested on: RPMI-8226 leukemia
SF-539 CNS = tested on: SF-539 CNS
NCI-H23 lung = tested on: NCI-H23 lung
K-562 leukemia = tested on: K-562 leukemia
EKVX NSCLC = tested on: EKVX NSCLC
M14 melanoma = tested on: M14 melanoma
DMS 114 small cell lung = tested on: DMS 114 small cell lung
IGROV1 ovarian = tested on: IGROV1 ovarian
LOX IMVI melanoma = tested on: LOX IMVI melanoma
NCI-H460 lung = tested on: NCI-H460 lung
KM20L2 colon = tested on: KM20L2 colon
SR leukemia = tested on: SR leukemia
SF-295 CNS = tested on: SF-295 CNS
NCI-H226 lung = tested on: NCI-H226 lung
HOP-92 NSCLC = tested on: HOP-92 NSCLC
TK-10 renal = tested on: TK-10 renal
HOP-62 NSCLC = tested on: HOP-62 NSCLC
SK-OV-3 ovarian = tested on: SK-OV-3 ovarian
HT29 colon = tested on: HT29 colon
OVCAR-3 ovarian = tested on: OVCAR-3 ovarian
OVCAR-8 ovarian = tested on: OVCAR-8 ovarian
CAKI-1 renal = tested on: CAKI-1 renal
A549 NSCLC = tested on: A549 NSCLC
SK-MEL-5 melanoma = tested on: SK-MEL-5 melanoma
786-0 renal = tested on: 786-0 renal
HOP-18 NSCLC = tested on: HOP-18 NSCLC
ACHN renal = tested on: ACHN renal
SK-MEL-28 melanoma = tested on: SK-MEL-28 melanoma

Measured: TGI

C1=C(c2ccccc2)SC(N2CCCCC2)S1 (stereo not drawn)
not listed: OVCAR-8 ovarian | CAKI-1 renal | A549 NSCLC | SK-MEL-5 melanoma | 786-0 renal | HOP-18 NSCLC | ACHN renal | SK-MEL-28 melanoma
> 100 µM: all other assays above

Cn1ccnc1CCc1c(Cl)cccc1Cl
not listed: XF 498 CNS | SNB-19 CNS | EKVX NSCLC
> 100 µM: all other assays above

From PubChem BioAssay (NCI)
